From patent US6623914B2, “Method for preparing an acid salt of p-phenylenediamine-type photographic color developers” (Eastman Chemical Company, priority 2001, dated 2003)

Assay: Solubility (saturation concentration) of color developer free base in solvents at ambient temperature
Conditions: ambient temperatures; liquid free base; stated, saturation concentration not evaluated
Experimental: To define the free base solution product compositions, the solubility of the free base form of color developers N-ethyl-N-(2-methanesulfonylaminoethyl)-2-methyl-p-phenylenediamine and N-ethyl-N-(2-hydroxyethyl)-2-methyl-p-phenylenediamine was determined in a number of potential solvents at ambient temperature, nominally 24° C.
A small quantity, about 3 weight % relative to the weight of the solvent, of N,N-diethylhydroxylamine (DEHA) was added as a preservative to each determination. Excess color developer free base identified above was added to each solvent and saturation was achieved by mixing for several hours at room temperature.

## CCN(CC)c1ccc(N)cc1C [N,N-diethyl-2-methyl-p-phenylenediamine]
  Miscibility with the water-soluble, water-miscible, hydroxy-containing solvent candidates: fully miscible
